Target: T1, glucocerebrosidase (GCase; recombinant human-derived GBA/Glucosylceramidase, rGCase) (Homo sapiens, UniProt P04062)
T1 construct: gene GBA1; recombinant human-derived GBA/Glucosylceramidase (rGCase)
T1 sequence (P04062 40-536): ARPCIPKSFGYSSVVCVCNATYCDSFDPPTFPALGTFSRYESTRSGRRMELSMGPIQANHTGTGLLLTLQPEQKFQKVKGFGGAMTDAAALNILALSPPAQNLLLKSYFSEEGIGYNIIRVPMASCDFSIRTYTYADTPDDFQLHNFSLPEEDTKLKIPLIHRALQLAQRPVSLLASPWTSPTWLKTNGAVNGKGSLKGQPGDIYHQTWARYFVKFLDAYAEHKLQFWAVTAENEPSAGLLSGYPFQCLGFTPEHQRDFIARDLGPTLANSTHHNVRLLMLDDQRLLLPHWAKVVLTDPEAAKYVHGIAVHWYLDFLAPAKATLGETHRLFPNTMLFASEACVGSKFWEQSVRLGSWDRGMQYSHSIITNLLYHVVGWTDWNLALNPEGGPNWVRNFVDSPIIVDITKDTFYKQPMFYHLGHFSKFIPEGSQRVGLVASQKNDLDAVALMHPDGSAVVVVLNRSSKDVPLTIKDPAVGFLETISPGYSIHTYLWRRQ
Test: fluorogenic 4MU-β-Glc inhibition assay with recombinant GCase, pH […]
Type: biochemical

An IC50 of 48.5 µM was found for `CC(=O)NCC(=O)O` [NAG, N-acetylglycine] in this work.
